The record followed here is PubChem BioAssay (NCI).

Test systems include CCRF-CEM leukemia; UACC-62 melanoma; NCI-H522 lung; SF-268 CNS; SN12C renal; LOX IMVI melanoma; HOP-92 NSCLC; 786-0 renal; PC-3 prostate; SR leukemia.
Holding throughout (assay): NCI-60 cell line screen, 48 h

Structures are written as SMILES. “And” between values parts separate entries of the source, which are not always exact repeats. Identical values can stand only once.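 These data come from cells grown in 96-well plates and exposed to compound for 48 hours at five concentrations. Abbreviation: GI50, concentration required for 50% inhibition of growth. TGI: concentration producing complete growth inhibition.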

Regarding `C[C@]12CC[C@H](O)C[C@H]1CC[C@@H]1[C@@H]2CC[C@]2(C)[C@@H](C3=CC(=O)OC3)CC[C@]12O`, the TGI in the experiment with CCRF-CEM leukemia came out at 44.4 µM; in the experiment on UACC-62 melanoma it was 1.09 µM; in the experiment on NCI-H522 lung it was 0.436 µM; in the experiment on SF-268 CNS, 0.226 µM; in the experiment with SN12C renal, 0.327 µM; with LOX IMVI melanoma, 0.533 µM. For the same molecule, the results for the TGI with HOP-92 NSCLC, in the experiment on 786-0 renal and in the experiment with PC-3 prostate were 1.1 µM, 0.142 µM and 3.7 µM, respectively. The GI50 in the experiment on UACC-62 melanoma is 0.32 µM; in the experiment on 786-0 renal it was 0.0337 µM; in the experiment on PC-3 prostate it was 0.178 µM.
As for `CC(=O)/C=C/c1ccc(C#Cc2ccccc2)s1`, the GI50 with CCRF-CEM leukemia is 22.2 µM; in the experiment on UACC-62 melanoma it was 17.5 µM; in the experiment with NCI-H522 lung it was 12.7 µM; with SF-268 CNS, 17.4 µM; with SN12C renal it was 17.1 µM; with LOX IMVI melanoma it was 18 µM. For the same molecule, the GI50 was 12.5 µM in the experiment with 786-0 renal and 15.7 µM with PC-3 prostate. Further, the TGI in the experiment with CCRF-CEM leukemia is 47.6 µM; in the experiment on UACC-62 melanoma, 31.5 µM; with NCI-H522 lung, 25.4 µM; with SF-268 CNS, 48.9 µM; with SN12C renal it was 31.4 µM; with LOX IMVI melanoma it was 31.9 µM. Besides, the TGI amounted to 25 µM in the experiment with 786-0 renal and 29 µM with PC-3 prostate.
`CC(C)N=c1cc2n(-c3ccc(Cl)cc3)c3ccccc3nc-2cc1Nc1ccc(Cl)cc1`: the GI50 in the experiment on CCRF-CEM leukemia was 0.75 µM and 2.49 µM; with SR leukemia, 2.48 µM; with UACC-62 melanoma, 1.96 µM; in the experiment on SF-268 CNS it was 1.73 µM; in the experiment on SN12C renal, 0.92 µM and 2.74 µM; with HOP-92 NSCLC, 0.629 µM. Also, the GI50 in the experiment on 786-0 renal was 1.52 µM and 3.12 µM; in the experiment with PC-3 prostate it was 0.891 µM and 1.9 µM. Further, the TGI is over 100 µM in the experiment with CCRF-CEM leukemia; over 100 µM in the experiment with SR leukemia; over 50 µM with UACC-62 melanoma; over 50 µM with SF-268 CNS; over 100 µM with SN12C renal; 2.83 µM in the experiment on HOP-92 NSCLC. The TGI was over 100 µM in the experiment with 786-0 renal and over 50 µM with PC-3 prostate.
For `Cc1cc(C2CC(O)C(CO)O2)cc2c(=O)[nH]c(N)nc12` (centres undefined), the GI50 in the experiment with CCRF-CEM leukemia, with UACC-62 melanoma, in the experiment on NCI-H522 lung, in the experiment on SF-268 CNS, with SN12C renal and with LOX IMVI melanoma was over 100 µM throughout. For the same molecule, the GI50 in the experiment with HOP-92 NSCLC, with 786-0 renal and in the experiment with PC-3 prostate was over 100 µM each time. Further, the TGI in the experiment on CCRF-CEM leukemia, in the experiment with UACC-62 melanoma, in the experiment on NCI-H522 lung, with SF-268 CNS, in the experiment with SN12C renal and with LOX IMVI melanoma was over 100 µM throughout. Also, the TGI in the experiment on HOP-92 NSCLC, in the experiment on 786-0 renal and in the experiment on PC-3 prostate was over 100 µM in each case.
With `O=C(O)CC[N+]1=CCC(c2ccccc2)(c2ccccc2)O1`, the TGI in the experiment with UACC-62 melanoma, in the experiment with NCI-H522 lung, in the experiment with SF-268 CNS, in the experiment on SN12C renal, with HOP-92 NSCLC and in the experiment on 786-0 renal was over 100 µM throughout. Also, the TGI in the experiment with PC-3 prostate is over 100 µM.
For `CC1CCC(=O)C(C(=O)CC2CC(=O)NC(=O)C2)C1` (centres undefined), the TGI in the experiment on CCRF-CEM leukemia, with SR leukemia, with UACC-62 melanoma, with SF-268 CNS, in the experiment with SN12C renal and in the experiment with LOX IMVI melanoma was over 100 µM each time. Besides, the TGI in the experiment on HOP-92 NSCLC, in the experiment with 786-0 renal and in the experiment on PC-3 prostate was over 100 µM throughout.
Consider `COc1cccc(/C(COc2ccc3c(c2)oc(=O)c2cc(OC)ccc23)=N/O)c1`, for which the GI50 in the experiment with CCRF-CEM leukemia is 11.4 µM; in the experiment on UACC-62 melanoma, 4.25 µM; in the experiment with NCI-H522 lung, 3.12 µM; in the experiment with SF-268 CNS, 9.58 µM; with SN12C renal, 14.2 µM; in the experiment on LOX IMVI melanoma it was 7.14 µM. Further, the figures for the GI50 with HOP-92 NSCLC, in the experiment with 786-0 renal and in the experiment with PC-3 prostate were 37 µM, 9.66 µM and 6.29 µM, respectively. Further, the TGI in the experiment with CCRF-CEM leukemia was over 100 µM; in the experiment on UACC-62 melanoma it was over 100 µM; with NCI-H522 lung, 9.47 µM; in the experiment with SF-268 CNS it was over 100 µM; in the experiment with SN12C renal, over 100 µM; in the experiment with LOX IMVI melanoma, over 100 µM. Also, the TGI in the experiment on HOP-92 NSCLC, in the experiment on 786-0 renal and in the experiment on PC-3 prostate was over 100 µM in each case.
As for `COc1cc2ccc3c4cc(OC)c(OC(C)C)cc4cnc3c2cc1OC`, the TGI with CCRF-CEM leukemia, with SR leukemia, with UACC-62 melanoma, in the experiment on NCI-H522 lung, in the experiment with SF-268 CNS and with SN12C renal was over 100 µM each time. In addition, the TGI with LOX IMVI melanoma, with HOP-92 NSCLC and in the experiment on 786-0 renal was over 100 µM throughout.
As to `O=[N+]([O-])c1ccc2c(c1)C(c1ccccc1Cl)=Nc1cn[nH]c1N2`, the GI50 in the experiment on CCRF-CEM leukemia is 8 µM; in the experiment on SR leukemia, 15.2 µM; in the experiment on UACC-62 melanoma, 16 µM; in the experiment with NCI-H522 lung, 15.5 µM; in the experiment on SF-268 CNS, over 23.9 µM; with SN12C renal, 19.8 µM. The GI50 in the experiment with LOX IMVI melanoma is 18.1 µM; in the experiment on 786-0 renal it was 11.8 µM; in the experiment on PC-3 prostate, 14.3 µM. The TGI in the experiment on CCRF-CEM leukemia, in the experiment with SR leukemia, in the experiment on UACC-62 melanoma, in the experiment with NCI-H522 lung, with SF-268 CNS and with SN12C renal was over 25 µM in each case. Further, the TGI in the experiment with LOX IMVI melanoma, with 786-0 renal and in the experiment on PC-3 prostate was over 25 µM each time.
Consider `Cn1cc(C2=C(c3cn(CCCCCN)c4ccccc34)C(=O)NC2=O)c2ccccc21`, for which the GI50 in the experiment on CCRF-CEM leukemia was 5.58 µM; in the experiment on UACC-62 melanoma it was 10.3 µM; in the experiment on NCI-H522 lung it was 15.5 µM; with SF-268 CNS it was 12.5 µM; in the experiment on SN12C renal it was 9.33 µM; in the experiment on LOX IMVI melanoma it was 4.9 µM. Besides, the GI50 in the experiment on 786-0 renal is 9.83 µM; in the experiment with PC-3 prostate, 13.8 µM. Moreover, the TGI in the experiment with CCRF-CEM leukemia is over 20.6 µM; in the experiment on UACC-62 melanoma, over 25 µM; in the experiment with NCI-H522 lung, over 25 µM; in the experiment with SF-268 CNS, over 25 µM; with SN12C renal, over 25 µM; in the experiment with LOX IMVI melanoma, 13.5 µM. The TGI in the experiment with 786-0 renal and with PC-3 prostate was over 25 µM in each case.
